Assay results taken from ChEMBL document CHEMBL4613250, “Discovery of 4-((2S,4S)-4-Ethoxy-1-((5-methoxy-7-methyl-1H-indol-4-yl)methyl)piperidin-2-yl)benzoic Acid (LNP023), a Factor B Inhibitor Specifically Designed To Be Applicable to Treating a Diverse Array of Complement Mediated Diseases” (J Med Chem, 2020).

What was measured:
Complement factor B = Complement factor B (Mus musculus, UniProt P04186); assay: Inhibition of serine protease factor B in 50% mouse serum assessed as reduction in C3b deposition pre-incubated for 15 mins before activated zymosan A stimulation for 50 mins by ELISA; type: cell-free
Chain of Complement factor B (P04186 whole entry): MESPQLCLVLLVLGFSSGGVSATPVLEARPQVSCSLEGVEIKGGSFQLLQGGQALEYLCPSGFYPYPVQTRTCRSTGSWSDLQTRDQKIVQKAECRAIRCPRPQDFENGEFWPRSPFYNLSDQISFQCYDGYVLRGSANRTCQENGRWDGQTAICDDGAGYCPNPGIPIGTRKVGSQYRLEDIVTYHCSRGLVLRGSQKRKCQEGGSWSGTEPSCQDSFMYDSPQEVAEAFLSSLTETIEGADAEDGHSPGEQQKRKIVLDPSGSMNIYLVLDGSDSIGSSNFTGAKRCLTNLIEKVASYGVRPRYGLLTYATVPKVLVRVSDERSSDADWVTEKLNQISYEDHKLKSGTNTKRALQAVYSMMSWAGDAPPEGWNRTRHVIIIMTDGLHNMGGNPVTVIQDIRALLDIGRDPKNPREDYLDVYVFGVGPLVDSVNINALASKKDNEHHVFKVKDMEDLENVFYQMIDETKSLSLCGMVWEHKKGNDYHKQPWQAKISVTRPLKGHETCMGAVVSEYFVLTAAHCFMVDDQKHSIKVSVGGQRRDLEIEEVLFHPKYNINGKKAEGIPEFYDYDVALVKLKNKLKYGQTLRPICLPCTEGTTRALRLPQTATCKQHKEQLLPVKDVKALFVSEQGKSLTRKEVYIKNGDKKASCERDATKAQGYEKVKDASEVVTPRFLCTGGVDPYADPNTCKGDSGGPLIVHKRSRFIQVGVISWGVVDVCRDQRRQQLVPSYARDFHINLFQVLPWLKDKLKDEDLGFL

[1] = Oral bioavailability in C57BL/6 mouse at 10 mg/kg after 5 mins to 7 hrs by HPLC-MS/MS analysis; type: ADME, organism-based; conditions: C57BL/6, mouse, in vivo
[2] = AUC (0 to last) in brown Norway rat plasma at 10 mg/kg, po administered as single dose measured after 0.25 to 24 hrs by HPLC-MS/MS analysis; type: ADME, organism-based; design: dose 10 mg/kg, time 0 - last, route oral
[3] = Protein binding in mouse plasma at 5 uM; type: ADME, cell-free; conditions: read-out: PPB
Mus musculus [4] = species: Mus musculus; assay: animal or person; conditions: C57BL/6, po, 4 h, read-out: INH
Mus musculus [5] = species: Mus musculus; assay: animal or person; conditions: C57BL/6, po, 4 h, read-out: INH; remark: listed apart in the source
Mus musculus [6] = species: Mus musculus; assay: animal or person; conditions: C57BL/6, po, 4 h, read-out: INH; remark: listed apart in the source
[7] = Cmax in brown Norway rat retina at 10 mg/kg, po administered as single dose measured after 0.25 to 24 hrs by HPLC-MS/MS analysis; type: ADME, organism-based; design: dose 10 mg/kg, route oral
[8] = Protein binding in dog plasma at 5 uM; type: ADME, cell-free, Canis lupus familiaris; conditions: read-out: PPB
Mus musculus [9] = species: Mus musculus; assay: animal or person; conditions: C57BL/6, po, 4 h, read-out: INH; remark: listed apart in the source
[10] = AUC (0 to last) in C57BL/6 mouse at 10 mg/kg, po after 7 hrs by HPLC-MS/MS analysis; type: ADME, organism-based; design: dose 10 mg/kg, time 0 - last, route oral; conditions: C57BL/6, mouse, in vivo
[11] = Mean residence time in C57BL/6 mouse at 1 mg/kg, iv after 5 mins to 7 hrs by HPLC-MS/MS analysis; type: ADME, organism-based; conditions: mouse, in vivo
Mus musculus [12] = species: Mus musculus; assay: animal or person; conditions: C57BL/6, po, 8 h, read-out: INH
[13] = Protein binding in human plasma at 5 uM; type: ADME, cell-free; conditions: read-out: PPB
[14] = Cmax in brown Norway rat plasma at 10 mg/kg, po administered as single dose measured after 0.25 to 24 hrs by HPLC-MS/MS analysis; type: ADME, organism-based; design: dose 10 mg/kg, route oral
Mus musculus [15] = species: Mus musculus; assay: animal or person; conditions: C57BL/6, po, 4 h, read-out: INH; remark: listed apart in the source
[16] = AUC (0 to last) in brown Norway rat posterior eye cup at 10 mg/kg, po administered as single dose measured after 0.25 to 24 hrs by HPLC-MS/MS analysis; type: ADME, organism-based
[17] = AUC (0 to last) in brown Norway rat retina at 10 mg/kg, po administered as single dose measured after 0.25 to 24 hrs by HPLC-MS/MS analysis; type: ADME, organism-based; design: dose 10 mg/kg, route oral, time 0 - last
[18] = Volume of distribution at steady state in C57BL/6 mouse at 1 mg/kg, iv after 5 mins to 7 hrs by HPLC-MS/MS analysis; type: ADME, organism-based; conditions: mouse, in vivo
[19] = Cmax in brown Norway rat posterior eye cup at 10 mg/kg, po administered as single dose measured after 0.25 to 24 hrs by HPLC-MS/MS analysis; type: ADME, organism-based
[20] = Half life in C57BL/6 mouse at 1 mg/kg, iv after 5 mins to 7 hrs by HPLC-MS/MS analysis; type: ADME, organism-based; conditions: mouse, in vivo
[21] = Protein binding in rat plasma at 5 uM; type: ADME, cell-free; conditions: read-out: PPB
Mus musculus [22] = species: Mus musculus; assay: animal or person; conditions: C57BL/6, po, 4 h, read-out: INH; remark: listed apart in the source
Mus musculus [23] = species: Mus musculus; assay: animal or person; conditions: C57BL/6, po, 8 h, read-out: INH; remark: listed apart in the source

Q: With CCO[C@H]1CCN(Cc2c(OC)cc(C)c3[nH]ccc23)[C@H](c2ccc(C(=O)O)cc2)C1 [IPTACOPAN] as the compound, how does the IC50 (Complement factor B) read?
A: 110 nM

Q: What about the bioavailability [1] of the same compound?
A: 46%

Q: And the AUC(0-t) [2]?
A: 28.6 µM·h

Q: What about the fraction unbound at 5 µM [3] of the same compound?
A: 0.26 to 0.43

Q: What about the inhibition in vivo at 30 mg/kg (Mus musculus [4]) of the same compound?
A: 100%

Q: And the inhibition in vivo at 30 mg/kg (Mus musculus [5])?
A: 100%

Q: What about the inhibition in vivo at 20 mg/kg (Mus musculus [6]) of the same compound?
A: 79%

Q: What about the Cmax [7] of the same compound?
A: 150 nM

Q: What about the fraction unbound at 5 µM [8] of the same compound?
A: 0.26 to 0.43

Q: What about the inhibition in vivo at 10 mg/kg (Mus musculus [9]) of the same compound?
A: 60%

Q: And the AUC(0-t) at 7 h [10]?
A: 7.6 µM·h

Q: What about the MRT [11] of the same compound?
A: 1.6 h

Q: What about the inhibition in vivo at 30 mg/kg (Mus musculus [12]) of the same compound?
A: 83%

Q: What about the fraction unbound at 5 µM [13] of the same compound?
A: 0.26 to 0.43

Q: What about the Cmax [14] of the same compound?
A: 5100 nM

Q: And the inhibition in vivo at 10 mg/kg (Mus musculus [15])?
A: 72%

Q: And the AUC(0-t) [16]?
A: 76.1 µM·h

Q: What about the AUC(0-t) [17] of the same compound?
A: 1.67 µM·h

Q: What about the Vdss [18] of the same compound?
A: 6.6 L/kg

Q: And the Cmax [19]?
A: 2500 nM

Q: And the t1/2 [20]?
A: 7.2 h

Q: And the fraction unbound at 5 µM [21]?
A: 0.26 to 0.43

Q: And the inhibition in vivo at 20 mg/kg (Mus musculus [22])?
A: 92%

Q: What about the inhibition in vivo at 30 mg/kg (Mus musculus [23]) of the same compound?
A: 83%
